SMILES strings stand for the structures. The source made the active and inactive calls. No cut-off for these calls is given here.

Experimental findings from ChEMBL document CHEMBL3393050, “Fine tuning of 4,6-bisphenyl-2-(3-alkoxyanilino)pyrimidine focusing on the activity-sensitive aminoalkoxy moiety for a therapeutically useful inhibitor of receptor for advanced glycation end products (RAGE)” (Bioorg Med Chem, 2015) are described below.

In one data set the target is Advanced glycosylation end product-specific receptor (Homo sapiens) (UniProt Q15109). The data set can be described thus: Inhibition of biotinylated human RAGE assessed as bound amyloid beta level at 20 uM after 60 mins by ELISA relative to control.
Sequence of Advanced glycosylation end product-specific receptor (Homo sapiens) (Q15109 whole entry): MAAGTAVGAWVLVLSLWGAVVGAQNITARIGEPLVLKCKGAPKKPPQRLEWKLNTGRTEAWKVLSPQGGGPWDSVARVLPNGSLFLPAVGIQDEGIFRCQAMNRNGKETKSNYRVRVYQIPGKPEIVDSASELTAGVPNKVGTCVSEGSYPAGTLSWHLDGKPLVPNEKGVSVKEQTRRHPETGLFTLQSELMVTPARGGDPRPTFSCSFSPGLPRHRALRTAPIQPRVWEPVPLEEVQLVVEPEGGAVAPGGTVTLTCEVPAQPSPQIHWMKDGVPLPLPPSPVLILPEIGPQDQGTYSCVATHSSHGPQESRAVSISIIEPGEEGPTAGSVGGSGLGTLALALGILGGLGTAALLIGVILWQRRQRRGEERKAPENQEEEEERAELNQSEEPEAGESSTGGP
Settings: not given
(In general: In an ELISA, binding on a coated surface is turned into a signal by an enzyme label.)
Take `CO/N=C/CCOc1cccc(Nc2nc(-c3ccc(Cl)cc3)cc(-c3ccc(Cl)cc3)n2)c1`: the inhibition entry was “inactive”.
`O=C1CCCN1CCOc1cccc(Nc2nc(-c3ccc(Cl)cc3)cc(-c3ccc(Cl)cc3)n2)c1`: the inhibition result was “inactive”.
As for `CON(C)C(=O)CCOc1cccc(Nc2nc(-c3ccc(Cl)cc3)cc(-c3ccc(Cl)cc3)n2)c1`, the inhibition entry was “inactive”.
As to `CCOCCOc1cccc(Nc2nc(-c3ccc(Cl)cc3)cc(-c3ccc(Cl)cc3)n2)c1`, the inhibition result is “inactive”.
On the same count and under the same terms, in the case of `COC(=O)CCOc1cccc(Nc2nc(-c3ccc(Cl)cc3)cc(-c3ccc(Cl)cc3)n2)c1` it was “inactive”; in that of `Clc1ccc(-c2cc(-c3ccc(Cl)cc3)nc(Nc3cccc(OCCN4CCSCC4)c3)n2)cc1`, “inactive”; in that of `Clc1ccc(-c2cc(-c3ccc(Cl)cc3)nc(Nc3cccc(OCCN4CCOCC4)c3)n2)cc1`, “inactive”.
Still for that read-out and setting: in the case of `O=C(O)CCOc1cccc(Nc2nc(-c3ccc(Cl)cc3)cc(-c3ccc(Cl)cc3)n2)c1` it was “inactive”.
Same read-out and setting: in the case of `CONC(=O)CCOc1cccc(Nc2nc(-c3ccc(Cl)cc3)cc(-c3ccc(Cl)cc3)n2)c1` it was “inactive”.
Take `O=C1CCN(CCOc2cccc(Nc3nc(-c4ccc(Cl)cc4)cc(-c4ccc(Cl)cc4)n3)c2)CC1`: the inhibition result is “inactive”.

Still in this data set, the particulars now being: values are per cent of control.
For the compound `CN(C)C1CCN(CCOc2cccc(Nc3nc(-c4ccc(Cl)cc4)cc(-c4ccc(Cl)cc4)n3)c2)C1.Cl` (stereo unspecified), the residual binding, % of control turned out to be 143%.
Still for that read-out and setting: in the case of `CCN(CCO)CCOc1cccc(Nc2nc(-c3ccc(Cl)cc3)cc(-c3ccc(Cl)cc3)n2)c1` it was 101%; in that of `Clc1ccc(-c2cc(-c3ccc(Cl)cc3)nc(Nc3cccc(OCCN4CCCCC4)c3)n2)cc1`, 112%; in that of `CCN(CC)CCCOc1cccc(Nc2nc(-c3ccc(Cl)cc3)cc(-c3ccc(Cl)cc3)n2)c1`, 84%.
On to `OC1CCCN(CCOc2cccc(Nc3nc(-c4ccc(Cl)cc4)cc(-c4ccc(Cl)cc4)n3)c2)C1` (stereo unspecified), for which the residual binding, % of control came to 52%.
For the compound `COC1CCCN(CCOc2cccc(Nc3nc(-c4ccc(Cl)cc4)cc(-c4ccc(Cl)cc4)n3)c2)C1` (stereo unspecified), the residual binding, % of control came out at 48%.
Still for that read-out and setting: in the case of `CN1CCN(c2cccc(Nc3nc(-c4ccc(Cl)cc4)cc(-c4ccc(Cl)cc4)n3)c2)CC1` it was 74%; in that of `CC(C)(C)OC(=O)NC1CCN(CCOc2cccc(Nc3nc(-c4ccc(Cl)cc4)cc(-c4ccc(Cl)cc4)n3)c2)C1` (stereo unspecified), 46%.
Same read-out and setting: in the case of `CCN(CCOC)CCOc1cccc(Nc2nc(-c3ccc(Cl)cc3)cc(-c3ccc(Cl)cc3)n2)c1` it was 88%; in that of `CN(C)CCOc1cccc(Nc2nc(-c3ccc(Cl)cc3)cc(-c3ccc(Cl)cc3)n2)c1`, 24%; in that of `NC1CCN(CCOc2cccc(Nc3nc(-c4ccc(Cl)cc4)cc(-c4ccc(Cl)cc4)n3)c2)C1` (stereo unspecified), 106%.
Same read-out and setting: in the case of `CN1CCN(CCOc2cccc(Nc3nc(-c4ccc(Cl)cc4)cc(-c4ccc(Cl)cc4)n3)c2)CC1` it was 71%; in that of `Clc1ccc(-c2cc(-c3ccc(Cl)cc3)nc(Nc3cccc(OCCN4CCCC4)c3)n2)cc1`, 114%.

Tested on in the next data set: not listed separately
Description: Kinetic solubility in DMSO solution at pH 4 by nephelometry. Format: physicochemical. The following applies: read-out: Kinetic_solubility.
In the case of `CN(C)C1CCN(CCOc2cccc(Nc3nc(-c4ccc(Cl)cc4)cc(-c4ccc(Cl)cc4)n3)c2)C1.Cl` (stereo unspecified), the solubility kinetic was greater than 500 µM.
As to `CCN(CC)CCOc1cccc(Nc2nc(-c3ccc(Cl)cc3)cc(-c3ccc(Cl)cc3)n2)c1.Cl`, the solubility kinetic is 372 µM.

Tested on in another data set: not listed separately
Description: Kinetic solubility in DMSO solution at pH 7.4 by nephelometry. The format is physicochemical. The note with it: read-out: Kinetic_solubility.
`CN(C)C1CCN(CCOc2cccc(Nc3nc(-c4ccc(Cl)cc4)cc(-c4ccc(Cl)cc4)n3)c2)C1.Cl` (stereo unspecified): the solubility kinetic stood at 28.2 µM.
